Reference: patent publication US12152038B2, “Vasopressin receptor antagonists and products and methods related thereto” (Neumora Therapeutics, Inc., priority 2017, dated 2024)

Molecular target: T1, human Arginine Vasopressin Receptor 1b (AVPR1b) (Homo sapiens, UniProt P47901)
T1 construct: expressed in transfected cells; host or cells: CHO (CHO-AVPR1b, kept under G418 selection)
T1 sequence (P47901 1-424): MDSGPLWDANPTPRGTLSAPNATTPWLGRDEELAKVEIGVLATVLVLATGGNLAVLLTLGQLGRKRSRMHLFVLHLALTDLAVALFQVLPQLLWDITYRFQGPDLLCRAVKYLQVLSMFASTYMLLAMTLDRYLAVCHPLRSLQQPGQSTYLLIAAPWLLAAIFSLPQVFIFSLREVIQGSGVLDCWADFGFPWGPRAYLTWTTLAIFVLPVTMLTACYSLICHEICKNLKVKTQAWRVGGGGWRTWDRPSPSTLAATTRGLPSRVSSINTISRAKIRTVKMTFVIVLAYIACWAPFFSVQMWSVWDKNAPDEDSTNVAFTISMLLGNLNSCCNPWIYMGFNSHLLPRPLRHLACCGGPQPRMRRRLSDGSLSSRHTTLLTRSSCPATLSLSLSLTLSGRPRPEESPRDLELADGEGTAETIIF
Assay: Vasopressin V1b receptor antagonist assay (FLIPR calcium, CHO-AVPR1b cells)
Format: cell-based
Procedure, shortened: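 CHO cells expressing human AVPR1b, loaded with Calcium-6 dye, were given compound (10-point, 1:3) for 15 min at 37 °C. Then AVP was added at its daily-determined EC80 in HBSS/HEPES. FLIPR fluorescence read for 3 min; antagonism seen as reduced AVP calcium response.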

IC50 [nM]	Compound
≥ 1000	CCC1COc2cc(Cl)ccc2N1C(=O)N1CC2(C1)CN(c1ccc(F)cn1)C2 (single isomer, unassigned) [1-55-B]
≥ 1000	CC1COc2cc(Cl)ccc2N1C(=O)N1CC2(C1)CN(c1ncccc1F)C2 (single isomer, unassigned) [1-57-A]
≥ 1000	CC1COc2cc(Cl)ccc2N1C(=O)N1CC2(C1)CN(c1cnccn1)C2 (single isomer, unassigned) [1-58-B]
≥ 1000	COc1ccc2c(c1)OCC(C)N2C(=O)N1CC2(C1)CN(c1ccc(F)cn1)C2 (single isomer, unassigned) [1-59-B]
≥ 1000	CC1COc2cc(Cl)ccc2N1C(=O)N1CC2(C1)CN(c1ccccn1)C2 (single isomer, unassigned) [1-60-B]
≥ 1000	CC1COc2cc(F)ccc2N1C(=O)N1CC2(C1)CN(c1cnccn1)C2 (single isomer, unassigned) [1-65-B]
≥ 1000	CC1COc2cc(F)ccc2N1C(=O)N1CC2(C1)CN(c1ccccn1)C2 (single isomer, unassigned) [1-66-B]
≥ 1000	CC1COc2cc(F)ccc2N1C(=O)N1CC2(C1)CN(c1ncccc1F)C2 (single isomer, unassigned) [1-67-A]
≥ 1000	CC1COc2cc(Cl)ccc2N1C(=O)N1CC2(C1)CN(c1ccc(F)cn1)C2 (single isomer, unassigned) [1-73-A]
≥ 1000	CC1COc2cc(Cl)ccc2N1C(=O)N1CC2(C1)CN(c1ccc(F)cn1)C2 (single isomer, unassigned) [1-73-B]
≥ 1000	O=C(N1CC2(C1)CN(c1ccc(F)cn1)C2)N1CCC(O)c2cc(Cl)ccc21 (single isomer, unassigned) [13-1-B]
≥ 1000	CC1COc2cc(Cl)ccc2N1C(=O)N1CC2(C1)CN(c1ncc(F)cn1)C2 (single isomer, unassigned) [18-2-B]
≥ 1000	Cc1cnc(N2CC3(CN(C(=O)N4c5ccc(Cl)cc5OCC4C)C3)C2)nc1 (single isomer, unassigned) [20-13-B]
≥ 1000	CC1COc2cc(Cl)ccc2N1C(=O)N1CC2(C1)CN(c1cc(=O)n(C)cn1)C2 (single isomer, unassigned) [20-14-B]
≥ 1000	CC1COc2cc(Cl)ccc2N1C(=O)N1CC2(C1)CN(c1nn(C)c3ncccc13)C2 (single isomer, unassigned) [20-15-B]
≥ 1000	Cc1cccc(N2CC3(CN(C(=O)N4CCOc5cc(Cl)ccc54)C3)C2)n1 [1-3]
≥ 1000	O=C(N1CC2(C1)CN(c1cnc(F)cn1)C2)N1CCOc2cc(Cl)ccc21 [1-18]
≥ 1000	Cc1cnc(N2CC3(CN(C(=O)N4CCOc5cc(Cl)ccc54)C3)C2)cn1 [1-20]
≥ 1000	Cc1cncc(N2CC3(CN(C(=O)N4CCOc5cc(Cl)ccc54)C3)C2)n1 [1-22]
≥ 1000	Cc1nc(N2CC3(CN(C(=O)N4CCOc5cc(Cl)ccc54)C3)C2)ccc1F [1-30]
≥ 1000	N#Cc1cccc(N2CC3(CN(C(=O)N4CCOc5cc(Cl)ccc54)C3)C2)n1 [1-39]
≥ 1000	COc1nccnc1N1CC2(CN(C(=O)N3CCOc4cc(Cl)ccc43)C2)C1 [1-43]

IC50 [nM]	Compound
≥ 1000	Cc1cc(F)nc(N2CC3(CN(C(=O)N4CCOc5cc(Cl)ccc54)C3)C2)c1 [1-45]
≥ 1000	O=C(N1CC2(C1)CN(c1ccc(F)c(F)n1)C2)N1CCOc2cc(Cl)ccc21 [1-49]
≥ 1000	O=C(N1CC2(C1)CN(c1cc(F)cc(F)n1)C2)N1CCOc2cc(Cl)ccc21 [1-51]
≥ 1000	N#Cc1ccnc(N2CC3(CN(C(=O)N4CCOc5cc(Cl)ccc54)C3)C2)c1 [1-53]
≥ 1000	CC1COc2cc(Cl)ccc2N1C(=O)N1CC2(C1)CN(c1ccccn1)C2 (centres unmarked) [1-60]
≥ 1000	O=C(N1CC2(C1)CN(c1ccc(F)cn1)C2)N1CCOc2cc(F)ccc21 [1-64]
≥ 1000	CC1COc2cc(F)ccc2N1C(=O)N1CC2(C1)CN(c1ncccc1F)C2 (centres unmarked) [1-67]
≥ 1000	COc1ccc(N2CC3(CN(C(=O)N4CCOc5cc(Cl)ccc54)C3)C2)nc1 [1-68]
≥ 1000	O=C(N1CC2(C1)CN(c1cccc(F)n1)C2)N1CCOc2cc(Cl)ccc21 [1-69]
≥ 1000	O=C(N1CC2(C1)CN(c1cc(F)ccn1)C2)N1CCOc2cc(Cl)ccc21 [1-70]
≥ 1000	O=C(N1CC2(C1)CN(c1cccnn1)C2)N1CCOc2cc(Cl)ccc21 [1-71]
≥ 1000	O=C(N1CC2(C1)CN(c1cccnc1)C2)N1CCOc2cc(Cl)ccc21 [1-72]
≥ 1000	CC1COc2cc(Cl)ccc2N1C(=O)N1CC2(C1)CN(c1noc3ccccc13)C2 (centres unmarked) [21-1, (6-(benzo[d]isoxazol-3-yl)-2,6-diazaspiro[3.3]heptan-2-yl)(7-chloro-3-methyl-2,3-dihydro-4H-benzo[b][1,4]oxazin-4-yl)methanone]
≥ 1000	CC1COc2cc(Cl)ccc2N1C(=O)N1CC2(C1)CN(c1ncccc1C#N)C2 (centres unmarked) [21-2]
≥ 1000	Cc1cncc(N2CC3(CN(C(=O)N4c5ccc(Cl)cc5OCC4C)C3)C2)n1 (centres unmarked) [21-3]
≥ 1000	Cc1cnnc(N2CC3(CN(C(=O)N4c5ccc(Cl)cc5OCC4C)C3)C2)c1 (centres unmarked) [21-4]
≥ 1000	CC1COc2cc(Cl)ccc2N1C(=O)N1CC2(C1)CN(c1ncncc1F)C2 (centres unmarked) [21-5]
≥ 1000	CC1COc2cc(Cl)ccc2N1C(=O)N1CC2(C1)CN(c1ccncn1)C2 (centres unmarked) [21-6]
≥ 1000	Cc1nccc(N2CC3(CN(C(=O)N4c5ccc(Cl)cc5OCC4C)C3)C2)n1 (centres unmarked) [21-8]
≥ 1000	CCc1cnc(N2CC3(CN(C(=O)N4c5ccc(Cl)cc5OCC4C)C3)C2)nc1 (centres unmarked) [21-9]
≥ 1000	CC1COc2cc(Cl)ccc2N1C(=O)N1CC2(C1)CN(c1nccc(C(F)(F)F)n1)C2 (centres unmarked) [21-10]
≥ 1000	Cc1cc(N2CC3(CN(C(=O)N4c5ccc(Cl)cc5OCC4C)C3)C2)ncn1 (centres unmarked) [21-11]
